Results on 16 molecules are retold here after patent US11578069B2, “Compounds for inhibition of α4 β7 integrin” (Gilead Sciences, Inc., priority 2019, dated 2023).

For one assay, the target named is T1, α4β7 integrin (Homo sapiens, UniProt P13612+P26010).
T1 construct: monitoring the capture of α4β7 integrin expressing cells; endogenous in cells; host or cells: RPMI8866
T1 sequence (P13612 34-1032): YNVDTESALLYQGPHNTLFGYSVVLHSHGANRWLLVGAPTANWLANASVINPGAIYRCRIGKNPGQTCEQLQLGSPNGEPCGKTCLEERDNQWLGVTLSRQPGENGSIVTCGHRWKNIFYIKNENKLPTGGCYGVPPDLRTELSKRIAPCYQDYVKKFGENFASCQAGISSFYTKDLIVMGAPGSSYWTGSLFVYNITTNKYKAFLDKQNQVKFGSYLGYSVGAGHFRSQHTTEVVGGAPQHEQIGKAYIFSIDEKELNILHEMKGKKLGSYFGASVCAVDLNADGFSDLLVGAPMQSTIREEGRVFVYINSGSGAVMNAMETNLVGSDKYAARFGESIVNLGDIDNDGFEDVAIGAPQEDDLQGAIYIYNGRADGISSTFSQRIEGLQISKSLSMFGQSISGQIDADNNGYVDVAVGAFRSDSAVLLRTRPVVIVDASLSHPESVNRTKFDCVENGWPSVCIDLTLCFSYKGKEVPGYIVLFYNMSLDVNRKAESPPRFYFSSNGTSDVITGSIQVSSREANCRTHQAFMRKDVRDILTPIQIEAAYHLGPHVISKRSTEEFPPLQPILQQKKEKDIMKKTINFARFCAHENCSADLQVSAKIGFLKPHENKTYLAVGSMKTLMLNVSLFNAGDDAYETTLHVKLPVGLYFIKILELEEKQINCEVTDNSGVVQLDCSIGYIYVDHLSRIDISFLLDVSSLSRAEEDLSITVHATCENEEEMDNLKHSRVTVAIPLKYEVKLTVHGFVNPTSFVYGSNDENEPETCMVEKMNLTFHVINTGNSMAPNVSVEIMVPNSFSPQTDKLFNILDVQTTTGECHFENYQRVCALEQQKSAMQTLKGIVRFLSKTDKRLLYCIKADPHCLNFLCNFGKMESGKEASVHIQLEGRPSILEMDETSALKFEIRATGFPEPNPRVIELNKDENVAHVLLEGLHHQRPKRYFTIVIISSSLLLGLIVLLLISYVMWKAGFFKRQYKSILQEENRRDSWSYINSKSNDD
T1 sequence (P26010 20-798): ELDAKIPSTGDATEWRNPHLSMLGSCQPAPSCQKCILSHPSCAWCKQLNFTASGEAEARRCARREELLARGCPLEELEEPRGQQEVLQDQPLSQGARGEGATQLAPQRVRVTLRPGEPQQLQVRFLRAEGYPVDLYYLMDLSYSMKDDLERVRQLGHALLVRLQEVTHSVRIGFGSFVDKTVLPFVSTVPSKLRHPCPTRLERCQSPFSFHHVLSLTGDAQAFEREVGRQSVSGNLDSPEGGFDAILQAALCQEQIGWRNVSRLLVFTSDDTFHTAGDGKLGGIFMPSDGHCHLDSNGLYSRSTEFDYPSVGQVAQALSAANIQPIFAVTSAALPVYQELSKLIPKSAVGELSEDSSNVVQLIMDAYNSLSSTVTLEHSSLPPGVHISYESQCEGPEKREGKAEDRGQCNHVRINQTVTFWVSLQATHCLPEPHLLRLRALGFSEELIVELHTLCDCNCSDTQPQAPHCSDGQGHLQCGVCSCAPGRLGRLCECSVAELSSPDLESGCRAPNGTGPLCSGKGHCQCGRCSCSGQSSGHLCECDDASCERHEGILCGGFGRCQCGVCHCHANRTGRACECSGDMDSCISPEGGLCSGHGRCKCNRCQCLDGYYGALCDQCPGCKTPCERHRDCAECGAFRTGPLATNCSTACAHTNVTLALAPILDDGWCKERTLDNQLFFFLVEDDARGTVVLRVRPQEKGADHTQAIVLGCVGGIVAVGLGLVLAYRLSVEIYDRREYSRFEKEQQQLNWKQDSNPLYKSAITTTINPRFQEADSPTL
Nature of the assay: α4β7 Integrin Cell Capture Assay. It is filed as cell-based. The conditions noted are these: capture of α4β7 integrin expressing RPM18866 cells on MadCAM-1 extracellular domain-coated plate. How it is done: The potency of inhibitors in preventing α4β7 integrin interaction with MadCAM-1 was measured by monitoring the capture of α4β7 integrin expressing cells on a recombinant MadCAM-1 extracellular domain-coated plate.
384-well plates (Corning 3702) were coated with MadCAM-1 extracellular domain by dispensing 20 μL of MAdCAM-1 at 1.0 μg/mL per well and incubating overnight at 4° C. The plates were then washed with PBS and blocked with 3% BSA for 2 hours before being washed again.
(§1) RPM18866 cells were spun down and re-suspended in assay medium (DMEM+0.5% FBS+0.5 mM MnCl2) at a density of 0.5×10^6 cells/mL. The cells were then dispensed (60 μL/well) to a 384-well plate (Greiner 781280) that was previously spotted with 60 nL of test compound per well. The plates were incubated at 37° C. for 1 hour. 50 μL of cells were transferred to the blocked, MadCAM-1-coated plates and incubated for 30 minutes at 37° C. 10 μL of 12% glutaraldehyde containing Hoechst 33342 (0.06 mg/mL) was added to the cells (2% glutaraldehyde and 0.01 mg/mL final concentrations). The plates were incubated for 90 minutes at room temperature. The plates were then washed 3 times with 70 μL of PBS per well and imaged on a Cellomics ArrayScan instrument. The cells that were bound to the plate were counted and plotted against the compound concentration to determine the EC50 of the test compounds.

For the next assay, the target named is T2, α4β1 integrin (Homo sapiens, UniProt P05556+P13612).
T2 construct: monitoring the capture of α4β1 expressing cells; endogenous in cells; host or cells: Jurkat
T2 sequence (P05556 21-798, one chain of several): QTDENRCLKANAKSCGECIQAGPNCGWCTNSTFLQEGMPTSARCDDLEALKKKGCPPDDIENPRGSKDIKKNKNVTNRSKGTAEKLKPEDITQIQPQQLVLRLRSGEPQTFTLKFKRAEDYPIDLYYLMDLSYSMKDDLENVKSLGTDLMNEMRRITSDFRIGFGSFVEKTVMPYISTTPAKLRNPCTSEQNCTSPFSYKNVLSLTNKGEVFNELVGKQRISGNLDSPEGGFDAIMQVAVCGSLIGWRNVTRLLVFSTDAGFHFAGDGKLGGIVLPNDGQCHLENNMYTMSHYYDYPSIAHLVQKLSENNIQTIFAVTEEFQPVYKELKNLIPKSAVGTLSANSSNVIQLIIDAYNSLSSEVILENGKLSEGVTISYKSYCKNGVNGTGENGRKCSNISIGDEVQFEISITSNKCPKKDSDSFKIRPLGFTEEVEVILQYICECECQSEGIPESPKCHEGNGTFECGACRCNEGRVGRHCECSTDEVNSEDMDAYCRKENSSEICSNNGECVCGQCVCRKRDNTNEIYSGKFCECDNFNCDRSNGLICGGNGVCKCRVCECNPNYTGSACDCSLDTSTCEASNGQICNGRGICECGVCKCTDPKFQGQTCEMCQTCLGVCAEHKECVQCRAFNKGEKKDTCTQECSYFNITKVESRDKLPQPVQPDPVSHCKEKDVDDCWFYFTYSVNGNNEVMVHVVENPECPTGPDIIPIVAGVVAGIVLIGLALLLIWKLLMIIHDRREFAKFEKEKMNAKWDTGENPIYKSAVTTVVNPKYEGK
As to the kind of experiment: α4β1 Cell Capture Assay. It is filed as cell-based. The following applies: capture of α4β1 expressing Jurkat cells on VCAM-1 extracellular domain-coated plate. As to the method:
The potency of inhibitors in preventing α4β1 integrin interaction with VCAM-1 was measured by monitoring the capture of α4β1 expressing cells to a recombinant VCAM-1 extracellular domain-coated plate.
384-well plates (Corning 3702) were coated with VCAM-1 extracellular domain by dispensing 20 μL of VCAM-1 at 0.5 μg/ml per well and incubating overnight at 4° C. The plates were then washed with PBS and blocked with 3% BSA for 2 hours before being washed again.
as §1, with “Jurkat cells” for “RPM18866 cells”, “0.5×10^6 cells/ml.” for “0.5×10^6 cells/mL.”, “blocked, VCAM-1-coated” for “blocked, MadCAM-1-coated”, “10 μl” for “10 μL”, “0.01 mg/ml Hoechst 33342” for “0.01 mg/mL”

For `CN(C)c1ccc2c(c1)c(=O)n(-c1ccc(C[C@H](NC(=O)c3c(F)cc(N4CCOC[C@@H]4C(F)(F)F)cc3F)C(=O)O)cc1)c(=O)n2C` [Example 36], the EC50 came out at 1.2 nM on α4β7 integrin (Table 2) and 27.3 nM on α4β1 integrin (Table 2).
The like results for `Cn1c(=O)n(-c2c(F)cc(C[C@H](NC(=O)c3c(F)cc(N4CCOC[C@@H]4C(F)(F)F)cc3F)C(=O)O)cc2F)c(=O)c2ccncc21` [Example 82] were, in that order, 0.15 nM and 4.5 nM.
For the molecule `CC[C@@H](Nc1cc(F)c(C(=O)N[C@@H](Cc2ccc(-n3c(=O)c4ccncc4n(C)c3=O)nc2)C(=O)O)c(F)c1F)C(F)(F)F` [Example 17, (S)-3-(6-(1-methyl-2,4-dioxo-1,4-dihydropyrido[3,4-d]pyrimidin-3(2H)-yl)pyridin-3-yl)-2-(2,3,6-trifluoro-4-(((R)-1,1,1-trifluorobutan-2-yl)amino)benzamido)propanoic acid], the EC50 was 0.7 nM on α4β7 integrin (Table 1) and 58.9 nM at α4β1 integrin (Table 1).
Take `Cc1cc(N2CCOC[C@@H]2C(F)(F)F)cc(F)c1C(=O)N[C@@H](Cc1ccc(-n2c(=O)c3ccncc3n(C)c2=O)c(C(F)(F)F)c1)C(=O)O` (atropisomer, axis not shown) [Example 89]: the values for the EC50 on α4β7 integrin (Table 2) and on α4β1 integrin (Table 2) were 0.6 nM and 2.3 nM, respectively.
For the molecule `CC[C@@H](N(c1cc(F)c(C(=O)N[C@@H](Cc2ccc(-n3c(=O)c4ccncc4n(C)c3=O)nc2)C(=O)O)c(F)c1)C1CC1)C(F)(F)F` [Example 19, (S)-2-(4-(cyclopropyl((R)-1,1,1-trifluorobutan-2-yl)amino)-2,6-difluorobenzamido)-3-(6-(1-methyl-2,4-dioxo-1,4-dihydropyrido[3,4-d]pyrimidin-3(2H)-yl)pyridin-3-yl)propanoic acid], the 50% effective concentration (EC50) at α4β7 integrin (Table 1) is 2 nM; at α4β1 integrin (Table 1) it was 127 nM.
Consider `CCOCc1cc(OC)c(-c2ccc(C[C@H](NC(=O)c3c(F)cc(N[C@H](c4ccccc4)C(F)(F)F)cc3F)C(=O)O)cc2)c(OC)c1` [Example 28], for which the 50% effective concentration (EC50) was found to be 7.2 nM on α4β7 integrin (Table 2) and 70.7 nM on α4β1 integrin (Table 2).
With `COc1cnc2c(=O)n(-c3ccc(C[C@H](NC(=O)c4c(C)cc(N5CCOC[C@@H]5C(F)(F)F)cc4F)C(=O)O)cn3)c(=O)n(C)c2c1` [Example 78], the 50% effective concentration (EC50) on α4β7 integrin (Table 2) was found to be 0.16 nM; at α4β1 integrin (Table 2), 3.4 nM.
In the same order, the values of `Cc1cc(N2CCOC[C@@H]2C(F)(F)F)cc(F)c1C(=O)N[C@@H](Cc1ccc(-n2c(=O)c3ccc(C#N)cc3n(C)c2=O)nc1)C(=O)O` [Example 76] are 0.16 nM and 4.9 nM.
In the same order, the values of `CC[C@@H](Nc1cc(F)c(C(=O)N[C@@H](Cc2ccc(-n3c(=O)c4cc(N(C)C)ccc4n(C)c3=O)cc2)C(=O)O)c(F)c1)C(F)(F)F` [Example 33] are 2.5 nM and 105 nM.
For the molecule `CC[C@@H](Nc1cc(F)c(C(=O)N[C@@H](Cc2ccc(-c3c(C(F)(F)F)cc(C)n(C)c3=O)cc2)C(=O)O)c(F)c1)C(F)(F)F` [Example 1, (S)-2-(2,6-difluoro-4-(((R)-1,1,1-trifluorobutan-2-yl)amino)benzamido)-3-(4-(1,6-dimethyl-2-oxo-4-(trifluoromethyl)-1,2-dihydropyridin-3-yl)phenyl)propanoic acid], the EC50 was found to be 1.4 nM at α4β7 integrin (Table 1) and 10.3 nM on α4β1 integrin (Table 1).
`Cc1cc(C[C@H](NC(=O)c2c(C)cc(N3CCOC[C@@H]3C(F)(F)F)cc2F)C(=O)O)ccc1-c1c(C)nc(C)n(C)c1=O` [Example 40]: the 50% effective concentration (EC50) is 0.3 nM on α4β7 integrin (Table 2) and 7.7 nM on α4β1 integrin (Table 2).
For the molecule `Cn1c(=O)n(-c2ccc(C[C@H](NC(=O)c3c(F)cc(N4CCOC[C@@H]4C(F)(F)F)cc3Cl)C(=O)O)cn2)c(=O)c2ccncc21` [Example 55, (S)-2-(2-chloro-6-fluoro-4-((R)-3-(trifluoromethyl)morpholino)benzamido)-3-(6-(1-methyl-2,4-dioxo-1,4-dihydropyrido[3,4-d]pyrimidin-3(2H)-yl)pyridin-3-yl)propanoic acid], the EC50 turned out to be 0.1 nM at α4β7 integrin (Table 1) and 3.4 nM at α4β1 integrin (Table 1).
As to `Cc1cc(N2CCOC[C@@H]2C(F)(F)F)cc(F)c1C(=O)N[C@@H](Cc1ccc(-n2c(=O)c3ccncc3n(C)c2=O)c(F)c1)C(=O)O` [Example 84], the half-maximal effective concentration (EC50) on α4β7 integrin (Table 2) is 0.05 nM; on α4β1 integrin (Table 2) it was 1.7 nM.
In the same order, the values of `CC[C@@H](Nc1cc(F)c(C(=O)N[C@@H](Cc2ccc(-c3c(C)c4cc(F)ccc4n(C)c3=O)cc2)C(=O)O)c(F)c1)C(F)(F)F` [Example 34] are 3.2 nM and 61.4 nM.
The like results for `Cc1c(-c2ccc(C[C@H](NC(=O)c3c(F)cc(N4CCOC[C@@H]4C(F)(F)F)cc3F)C(=O)O)cc2)c(=O)n(C)c(=O)n1C` [Example 37] were, in that order, 0.4 nM and 9.8 nM.
On to `Cc1cc(C[C@H](NC(=O)c2c(C)cc(N3CCOC[C@@H]3C(F)(F)F)cc2F)C(=O)O)ccc1-c1c(C(F)(F)F)cc(C)n(C)c1=O` [Example 5, (S)-3-(4-(1,6-dimethyl-2-oxo-4-(trifluoromethyl)-1,2-dihydropyridin-3-yl)-3-methylphenyl)-2-(2-fluoro-6-methyl-4-((R)-3-(trifluoromethyl)morpholino)benzamido)propanoic acid], for which the figures for the EC50 on α4β7 integrin (Table 1) and on α4β1 integrin (Table 1) were 0.2 nM and 16.6 nM, respectively.
